The record followed here is US20250243171A1, “QUINAZOLINE COMPOUNDS FOR TREATMENT OF DISEASE” (Arthrosi Therapeutics, Inc., priority 2021, published 2025).

What all share (assay): EC50 assay: Ba/F3 stable cell proliferation (CCK-8, 72 h)
Common to all, as to assay type: cell-based

Experiment [1] concerns the target T1, Ba/F3 stable cells (Homo sapiens, UniProt P00533, DUP768-770, cells depend on it).
T1 construct: EC50 Ba/F3-EGFR D770-N771insSVD; other: Ba/F3-EGFR D770-N771insSVD cells, 72 h, CCK-8
The settings on record: Ba/F3-EGFR D770-N771insSVD cells. A digest of the protocol:
(§1)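 Ba/F3 stable cells were seeded at 4,000 cells/90 μL/well in 96-well plates and held 2 h at 37° C. in 5% CO2, then given 10 μL of serially titrated compound (0.1% DMSO final). After 72 h at 37° C., CCK-8 reagent was added for 4 hours and absorbance read at 450 nm to derive EC50.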

Experiment [2] concerns the target T2, Ba/F3 stable cells (Homo sapiens, UniProt P00533, T790M/L858R, cells depend on it).
T2 construct: EC50 Ba/F3-EGFR L858R-T790M; other: Ba/F3-EGFR L858R-T790M cells, 72 h, CCK-8
The settings on record: Ba/F3-EGFR L858R-T790M cells. A digest of the protocol: as §1

The target of experiment [3] is T3, Ba/F3 stable cells (Homo sapiens, UniProt P00533, DUP771-773, cells depend on it).
T3 construct: EC50 Ba/F3-EGFR H773-V774insNPH; other: Ba/F3-EGFR H773-V774insNPH cells, 72 h, CCK-8
The following applies: Ba/F3-EGFR H773-V774insNPH cells. Put shortly:
as §1

For experiment [4], the target named is T4, Ba/F3 stable cells (Homo sapiens, UniProt P00533, INS763FQEA, cells depend on it).
T4 construct: EC50 Ba/F3-EGFR A763-Y764insFQEA; other: Ba/F3-EGFR A763-Y764insFQEA cells, 72 h, CCK-8
T4 sequence (P00533 with tags, fused parts or gaps INS763FQEA): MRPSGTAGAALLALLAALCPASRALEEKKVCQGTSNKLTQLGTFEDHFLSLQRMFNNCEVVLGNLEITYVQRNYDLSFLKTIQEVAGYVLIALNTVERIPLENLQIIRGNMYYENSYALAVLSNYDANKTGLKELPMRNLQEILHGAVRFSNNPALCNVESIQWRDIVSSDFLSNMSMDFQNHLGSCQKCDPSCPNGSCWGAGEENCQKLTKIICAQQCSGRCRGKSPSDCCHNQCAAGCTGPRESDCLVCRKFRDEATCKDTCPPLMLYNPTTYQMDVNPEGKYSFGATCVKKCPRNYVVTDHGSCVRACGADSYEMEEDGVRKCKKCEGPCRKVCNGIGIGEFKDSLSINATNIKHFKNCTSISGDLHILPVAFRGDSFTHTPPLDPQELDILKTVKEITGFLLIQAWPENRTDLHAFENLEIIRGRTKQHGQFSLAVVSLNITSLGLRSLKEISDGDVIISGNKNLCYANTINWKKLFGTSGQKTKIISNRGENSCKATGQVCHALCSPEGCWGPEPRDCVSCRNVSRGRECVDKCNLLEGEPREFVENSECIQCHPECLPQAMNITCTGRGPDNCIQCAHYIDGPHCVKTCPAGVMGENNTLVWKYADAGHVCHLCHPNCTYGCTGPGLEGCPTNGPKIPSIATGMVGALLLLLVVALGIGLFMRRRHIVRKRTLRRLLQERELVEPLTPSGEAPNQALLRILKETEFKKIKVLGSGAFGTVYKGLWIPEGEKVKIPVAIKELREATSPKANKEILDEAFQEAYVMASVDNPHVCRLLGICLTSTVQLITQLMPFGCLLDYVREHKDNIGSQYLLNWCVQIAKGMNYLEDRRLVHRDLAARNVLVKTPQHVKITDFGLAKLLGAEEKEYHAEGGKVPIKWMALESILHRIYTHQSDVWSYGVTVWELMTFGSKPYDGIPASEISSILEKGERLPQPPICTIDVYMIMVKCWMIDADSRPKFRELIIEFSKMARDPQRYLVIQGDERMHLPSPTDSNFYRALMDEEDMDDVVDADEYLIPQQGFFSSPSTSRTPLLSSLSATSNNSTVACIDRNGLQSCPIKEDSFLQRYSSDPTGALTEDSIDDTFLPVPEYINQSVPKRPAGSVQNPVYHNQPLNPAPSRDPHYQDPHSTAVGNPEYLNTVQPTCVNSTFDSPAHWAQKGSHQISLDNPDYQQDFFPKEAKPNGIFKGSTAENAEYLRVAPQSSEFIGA
The settings on record: Ba/F3-EGFR A763-Y764insFQEA cells. Put shortly: as §1

The target in experiment [5] is T5, Ba/F3 stable cells (Homo sapiens, UniProt P04626, DUP772-775, cells depend on it).
T5 construct: EC50 Ba/F3-HER2 A775-G776insYVMA; other: Ba/F3-HER2 A775-G776insYVMA cells, 72 h, CCK-8
T5 sequence (P04626 with tags, fused parts or gaps DUP772-775): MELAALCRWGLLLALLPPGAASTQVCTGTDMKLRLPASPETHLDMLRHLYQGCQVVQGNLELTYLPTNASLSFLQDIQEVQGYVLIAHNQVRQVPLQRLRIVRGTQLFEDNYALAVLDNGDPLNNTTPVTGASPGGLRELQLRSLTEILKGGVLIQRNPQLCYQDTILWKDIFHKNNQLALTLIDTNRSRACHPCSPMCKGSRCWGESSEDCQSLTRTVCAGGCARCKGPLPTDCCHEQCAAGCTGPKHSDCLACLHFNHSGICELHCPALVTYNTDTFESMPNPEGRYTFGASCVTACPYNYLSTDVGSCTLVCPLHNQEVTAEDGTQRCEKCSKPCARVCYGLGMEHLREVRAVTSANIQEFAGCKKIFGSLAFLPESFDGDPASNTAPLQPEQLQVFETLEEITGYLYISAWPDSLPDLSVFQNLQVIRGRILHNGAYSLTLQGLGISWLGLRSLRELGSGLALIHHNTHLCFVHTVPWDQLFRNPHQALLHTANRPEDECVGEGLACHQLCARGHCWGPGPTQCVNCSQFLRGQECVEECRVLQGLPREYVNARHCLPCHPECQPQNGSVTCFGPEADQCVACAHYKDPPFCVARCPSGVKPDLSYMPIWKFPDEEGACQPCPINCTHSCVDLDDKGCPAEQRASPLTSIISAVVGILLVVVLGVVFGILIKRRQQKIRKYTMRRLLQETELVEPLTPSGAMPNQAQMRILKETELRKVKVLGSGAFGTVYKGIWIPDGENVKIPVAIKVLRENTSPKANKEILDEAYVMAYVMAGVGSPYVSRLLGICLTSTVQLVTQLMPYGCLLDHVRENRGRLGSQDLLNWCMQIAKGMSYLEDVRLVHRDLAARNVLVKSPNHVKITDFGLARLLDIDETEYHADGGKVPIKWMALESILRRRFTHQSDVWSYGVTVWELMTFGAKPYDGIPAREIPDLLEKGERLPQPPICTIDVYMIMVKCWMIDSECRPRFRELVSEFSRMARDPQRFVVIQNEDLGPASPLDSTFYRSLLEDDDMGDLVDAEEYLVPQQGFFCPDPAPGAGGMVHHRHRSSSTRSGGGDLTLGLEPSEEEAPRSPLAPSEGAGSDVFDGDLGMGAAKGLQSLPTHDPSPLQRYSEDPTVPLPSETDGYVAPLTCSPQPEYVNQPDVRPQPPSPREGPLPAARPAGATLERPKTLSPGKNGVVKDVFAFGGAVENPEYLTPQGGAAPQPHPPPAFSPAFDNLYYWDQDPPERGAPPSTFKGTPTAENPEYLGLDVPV
The following applies: Ba/F3-HER2 A775-G776insYVMA cells. Put shortly:
as §1

For experiment [6], the target named is T6, Ba/F3 stable cells (Homo sapiens, UniProt P00533, DUP767-769, cells depend on it).
T6 construct: EC50 Ba/F3-EGFR V769-D770insASV; other: Ba/F3-EGFR V769-D770insASV cells, 72 h, CCK-8
T6 sequence (P00533 with tags, fused parts or gaps DUP767-769): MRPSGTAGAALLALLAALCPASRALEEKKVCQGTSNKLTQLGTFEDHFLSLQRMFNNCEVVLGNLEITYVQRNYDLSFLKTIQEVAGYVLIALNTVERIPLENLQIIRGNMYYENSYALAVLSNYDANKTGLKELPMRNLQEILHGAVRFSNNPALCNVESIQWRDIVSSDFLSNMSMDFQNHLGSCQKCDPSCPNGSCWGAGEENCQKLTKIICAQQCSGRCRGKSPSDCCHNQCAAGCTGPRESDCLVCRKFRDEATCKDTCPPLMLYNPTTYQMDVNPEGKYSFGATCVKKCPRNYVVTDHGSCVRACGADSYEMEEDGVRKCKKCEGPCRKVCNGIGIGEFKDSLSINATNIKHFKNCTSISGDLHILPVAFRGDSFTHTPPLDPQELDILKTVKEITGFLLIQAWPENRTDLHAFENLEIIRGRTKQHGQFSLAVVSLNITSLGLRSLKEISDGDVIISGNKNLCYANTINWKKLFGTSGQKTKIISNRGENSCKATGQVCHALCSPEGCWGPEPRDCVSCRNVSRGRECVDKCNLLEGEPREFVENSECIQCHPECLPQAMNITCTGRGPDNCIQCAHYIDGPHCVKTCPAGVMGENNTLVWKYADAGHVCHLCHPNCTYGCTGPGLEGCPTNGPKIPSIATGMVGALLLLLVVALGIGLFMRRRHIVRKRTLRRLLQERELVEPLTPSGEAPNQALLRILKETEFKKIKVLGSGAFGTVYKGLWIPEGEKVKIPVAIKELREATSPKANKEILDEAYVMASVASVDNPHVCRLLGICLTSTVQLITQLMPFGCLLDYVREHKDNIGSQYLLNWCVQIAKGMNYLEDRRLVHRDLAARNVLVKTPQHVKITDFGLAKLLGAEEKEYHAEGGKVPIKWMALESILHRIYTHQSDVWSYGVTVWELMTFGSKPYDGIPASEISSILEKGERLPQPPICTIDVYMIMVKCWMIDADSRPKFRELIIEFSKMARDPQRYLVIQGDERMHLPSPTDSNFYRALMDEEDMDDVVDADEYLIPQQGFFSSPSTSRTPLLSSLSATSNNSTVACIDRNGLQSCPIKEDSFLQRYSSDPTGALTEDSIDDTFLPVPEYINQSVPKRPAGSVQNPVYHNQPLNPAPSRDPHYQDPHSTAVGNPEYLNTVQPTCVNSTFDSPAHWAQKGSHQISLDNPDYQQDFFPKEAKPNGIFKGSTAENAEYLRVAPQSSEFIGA
The following applies: Ba/F3-EGFR V769-D770insASV cells. Put shortly:
as §1

Molecules are shown by their SMILES.

T2 sequence (P00533 whole entry T790M/L858R): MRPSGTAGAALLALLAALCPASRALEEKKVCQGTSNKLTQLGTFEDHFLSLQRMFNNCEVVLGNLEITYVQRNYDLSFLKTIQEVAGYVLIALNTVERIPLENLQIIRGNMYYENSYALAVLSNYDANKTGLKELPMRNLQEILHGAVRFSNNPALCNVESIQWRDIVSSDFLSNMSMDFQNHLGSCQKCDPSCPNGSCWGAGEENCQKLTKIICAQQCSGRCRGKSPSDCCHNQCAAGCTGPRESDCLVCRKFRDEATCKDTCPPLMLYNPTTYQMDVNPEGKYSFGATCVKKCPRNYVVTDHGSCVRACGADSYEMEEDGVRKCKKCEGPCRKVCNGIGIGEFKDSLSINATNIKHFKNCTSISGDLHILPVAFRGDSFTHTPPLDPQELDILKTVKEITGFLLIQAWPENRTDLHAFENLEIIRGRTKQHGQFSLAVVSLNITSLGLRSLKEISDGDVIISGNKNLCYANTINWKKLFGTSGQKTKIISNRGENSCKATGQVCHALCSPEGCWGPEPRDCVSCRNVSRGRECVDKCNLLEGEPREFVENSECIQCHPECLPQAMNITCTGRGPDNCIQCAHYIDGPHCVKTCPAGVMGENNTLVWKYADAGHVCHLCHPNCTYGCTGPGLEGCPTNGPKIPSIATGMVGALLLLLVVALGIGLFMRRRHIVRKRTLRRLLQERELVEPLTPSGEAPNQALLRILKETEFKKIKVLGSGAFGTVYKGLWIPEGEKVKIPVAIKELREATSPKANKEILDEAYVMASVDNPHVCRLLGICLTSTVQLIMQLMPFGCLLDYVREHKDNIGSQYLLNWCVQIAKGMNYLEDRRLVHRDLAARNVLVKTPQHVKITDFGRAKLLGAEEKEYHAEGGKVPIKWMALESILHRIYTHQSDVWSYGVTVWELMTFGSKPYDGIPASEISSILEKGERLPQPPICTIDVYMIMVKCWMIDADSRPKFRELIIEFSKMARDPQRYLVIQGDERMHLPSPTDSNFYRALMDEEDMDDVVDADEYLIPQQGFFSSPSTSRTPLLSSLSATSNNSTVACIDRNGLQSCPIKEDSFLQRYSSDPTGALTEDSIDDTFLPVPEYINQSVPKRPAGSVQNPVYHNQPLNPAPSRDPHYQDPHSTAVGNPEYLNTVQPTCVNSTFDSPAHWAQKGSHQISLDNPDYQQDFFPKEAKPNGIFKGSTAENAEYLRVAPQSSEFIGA

The term EC50 denotes the concentration that produces a half-maximal response. Lower therefore signals an effect from little substance. As to `C=CC(=O)N1CCC(Oc2cc3c(NC(CC(=O)O)c4cccc(Cl)c4)ncnc3cc2OC)CC1` (stereo not drawn) [Compound 129, 3-((6-((1-acryloylpiperidin-4-yl)oxy)-7-methoxyquinazolin-4-yl)amino)-3-(3-chlorophenyl)propanoic acid], the EC50 at Ba/F3 stable cells [1], at Ba/F3 stable cells [2], on Ba/F3 stable cells [3], on Ba/F3 stable cells [4], at Ba/F3 stable cells [5] and on Ba/F3 stable cells [6] was over 1000 nM in each case.
For the molecule `C=CC(=O)N1CCC(Oc2cc3c(NC(CC(N)=O)c4cccc(Cl)c4)ncnc3cc2OC)CC1` (stereo not drawn) [Compound 130, 3-((6-((1-acryloylpiperidin-4-yl)oxy)-7-methoxyquinazolin-4-yl)amino)-3-(3-chlorophenyl)propanamide], the EC50 on Ba/F3 stable cells [1] was over 1000 nM; on Ba/F3 stable cells [2], over 1000 nM; on Ba/F3 stable cells [3] it was 200 to 1000 nM; on Ba/F3 stable cells [4], at most 200 nM; at Ba/F3 stable cells [5] it was 200 to 1000 nM; on Ba/F3 stable cells [6], at most 200 nM.
On to `C=CC(=O)N1CCC(Oc2cc3c(NC(CCO)c4cccc(Cl)c4)ncnc3cc2OC)CC1` (stereo not drawn) [Compound 131, 1-(4-((4-((1-(3-chlorophenyl)-3-hydroxypropyl)amino)-7-methoxyquinazolin-6-yl)oxy)piperidin-1-yl)prop-2-en-1-one], for which the EC50 is at most 200 nM at Ba/F3 stable cells [1]; over 1000 nM on Ba/F3 stable cells [2]; at most 200 nM at Ba/F3 stable cells [3]; at most 200 nM at Ba/F3 stable cells [4]; at most 200 nM on Ba/F3 stable cells [5]; at most 200 nM at Ba/F3 stable cells [6].
For `C=CC(=O)N1CCCC(Oc2cc3c(Nc4ccc(Cl)c(Cl)c4F)ncnc3cc2OC)C1` (stereo not drawn) [Compound 132, 1-(3-((4-((3,4-dichloro-2-fluorophenyl)amino)-7-methoxyquinazolin-6-yl)oxy)piperidin-1-yl)prop-2-en-1-one], the EC50 on Ba/F3 stable cells [1] is 200 to 1000 nM; on Ba/F3 stable cells [2] it was over 1000 nM; on Ba/F3 stable cells [3], 200 to 1000 nM; on Ba/F3 stable cells [4], at most 200 nM; on Ba/F3 stable cells [5], 200 to 1000 nM; at Ba/F3 stable cells [6] it was 200 to 1000 nM.
For `C=CC(=O)N1CCC(Oc2cc3c(Nc4ccc5c(c4)CCN5S(C)(=O)=O)ncnc3cc2OC)CC1` [Compound 134, 1-(4-((7-methoxy-4-((1-(methylsulfonyl)indolin-5-yl)amino)quinazolin-6-yl)oxy)piperidin-1-yl)prop-2-en-1-one], the EC50 on Ba/F3 stable cells [1] is over 1000 nM; at Ba/F3 stable cells [2], over 1000 nM; on Ba/F3 stable cells [3], over 1000 nM; at Ba/F3 stable cells [4], 200 to 1000 nM; at Ba/F3 stable cells [5], at most 200 nM; on Ba/F3 stable cells [6], over 1000 nM.
Consider `C=CC(=O)N1CCC(Oc2cc3c(Nc4cnc5ccccc5c4)ncnc3cc2OC)CC1` [Compound 135, 1-(4-((7-methoxy-4-(quinolin-3-ylamino)quinazolin-6-yl)oxy)piperidin-1-yl)prop-2-en-1-one], for which the EC50 is 200 to 1000 nM at Ba/F3 stable cells [1]; 200 to 1000 nM at Ba/F3 stable cells [2]; 200 to 1000 nM on Ba/F3 stable cells [3]; at most 200 nM on Ba/F3 stable cells [4]; 200 to 1000 nM on Ba/F3 stable cells [5]; at most 200 nM on Ba/F3 stable cells [6].
For `C=CC(=O)N1CCC(Oc2cc3c(Nc4nc5cc(Cl)ccc5o4)ncnc3cc2OC)CC1` [Compound 136, 1-(4-((4-((5-chlorobenzo[d]oxazol-2-yl)amino)-7-methoxyquinazolin-6-yl)oxy)piperidin-1-yl)prop-2-en-1-one], the EC50 was over 1000 nM on Ba/F3 stable cells [1]; over 1000 nM at Ba/F3 stable cells [2]; over 1000 nM on Ba/F3 stable cells [3]; 200 to 1000 nM at Ba/F3 stable cells [4]; over 1000 nM on Ba/F3 stable cells [5]; over 1000 nM at Ba/F3 stable cells [6].
For the molecule `C=CC(=O)N1CCC(Oc2cc3c(Nc4ccc5cn[nH]c5c4)ncnc3cc2OC)CC1` [Compound 137, 1-(4-((4-((1H-indazol-6-yl)amino)-7-methoxyquinazolin-6-yl)oxy)piperidin-1-yl)prop-2-en-1-one], the concentration for a half-maximal effect (EC50) was over 1000 nM at Ba/F3 stable cells [1]; over 1000 nM on Ba/F3 stable cells [2]; over 1000 nM on Ba/F3 stable cells [3]; at most 200 nM on Ba/F3 stable cells [4]; 200 to 1000 nM on Ba/F3 stable cells [5]; 200 to 1000 nM on Ba/F3 stable cells [6].
Take `C=CC(=O)N1CCC(Oc2cc3c(Nc4ccc5cnn(C)c5c4)ncnc3cc2OC)CC1` [Compound 138, 1-(4-((7-methoxy-4-((1-methyl-1H-indazol-6-yl)amino)quinazolin-6-yl)oxy)piperidin-1-yl)prop-2-en-1-one]: the EC50 on Ba/F3 stable cells [1] was 200 to 1000 nM; on Ba/F3 stable cells [2], 200 to 1000 nM; on Ba/F3 stable cells [3], 200 to 1000 nM; at Ba/F3 stable cells [4] it was at most 200 nM; at Ba/F3 stable cells [5], at most 200 nM; on Ba/F3 stable cells [6] it was at most 200 nM.
Turning to `C=CC(=O)N1CCC(Oc2cc3c(Nc4cccc5cn[nH]c45)ncnc3cc2OC)CC1` [Compound 139, 1-(4-((4-((1H-indazol-7-yl)amino)-7-methoxyquinazolin-6-yl)oxy)piperidin-1-yl)prop-2-en-1-one], the EC50 is over 1000 nM on Ba/F3 stable cells [1]; over 1000 nM on Ba/F3 stable cells [2]; over 1000 nM on Ba/F3 stable cells [3]; at most 200 nM at Ba/F3 stable cells [4]; over 1000 nM at Ba/F3 stable cells [5]; over 1000 nM on Ba/F3 stable cells [6].
On to `C=CC(=O)N1CCC(Oc2cc3c(Nc4ccc5cnccc5c4)ncnc3cc2OC)CC1` [Compound 140, 1-(4-((4-(isoquinolin-6-ylamino)-7-methoxyquinazolin-6-yl)oxy)piperidin-1-yl)prop-2-en-1-one], for which the EC50 at Ba/F3 stable cells [1], at Ba/F3 stable cells [2], at Ba/F3 stable cells [3], on Ba/F3 stable cells [4], on Ba/F3 stable cells [5] and at Ba/F3 stable cells [6] was over 1000 nM throughout.
For the molecule `C=CC(=O)N1CCC(Oc2cc3c(Nc4ccc5cccnc5c4)ncnc3cc2OC)CC1` [Compound 141, 1-(4-((7-methoxy-4-(quinolin-7-ylamino)quinazolin-6-yl)oxy)piperidin-1-yl)prop-2-en-1-one], the EC50 at Ba/F3 stable cells [1] was over 1000 nM; at Ba/F3 stable cells [2] it was 200 to 1000 nM; on Ba/F3 stable cells [3], 200 to 1000 nM; at Ba/F3 stable cells [4], at most 200 nM; at Ba/F3 stable cells [5], 200 to 1000 nM; at Ba/F3 stable cells [6] it was 200 to 1000 nM.
Turning to `C=CC(=O)N1CCC(Oc2cc3c(Nc4ccc5scnc5c4)ncnc3cc2OC)CC1` [Compound 142, 1-(4-((4-(benzo[d]thiazol-5-ylamino)-7-methoxyquinazolin-6-yl)oxy)piperidin-1-yl)prop-2-en-1-one], the EC50 on Ba/F3 stable cells [1] is over 1000 nM; at Ba/F3 stable cells [2], 200 to 1000 nM; on Ba/F3 stable cells [3], 200 to 1000 nM; on Ba/F3 stable cells [4] it was at most 200 nM; on Ba/F3 stable cells [5], at most 200 nM; at Ba/F3 stable cells [6] it was at most 200 nM.
Turning to `C=CC(=O)N1CCC(Oc2cc3c(Nc4ccc5ncccc5c4)ncnc3cc2OC)CC1` [Compound 143, 1-(4-((7-methoxy-4-(quinolin-6-ylamino)quinazolin-6-yl)oxy)piperidin-1-yl)prop-2-en-1-one], the EC50 on Ba/F3 stable cells [1] was over 1000 nM; on Ba/F3 stable cells [2] it was 200 to 1000 nM; at Ba/F3 stable cells [3], 200 to 1000 nM; on Ba/F3 stable cells [4] it was at most 200 nM; at Ba/F3 stable cells [5], 200 to 1000 nM; at Ba/F3 stable cells [6] it was at most 200 nM.
For the molecule `C=CC(=O)N1CCC(Oc2cc3c(Nc4ccc5nccnc5c4)ncnc3cc2OC)CC1` [Compound 144, 1-(4-((7-methoxy-4-(quinoxalin-6-ylamino)quinazolin-6-yl)oxy)piperidin-1-yl)prop-2-en-1-one], the EC50 on Ba/F3 stable cells [1] was over 1000 nM; on Ba/F3 stable cells [2] it was over 1000 nM; on Ba/F3 stable cells [3], over 1000 nM; at Ba/F3 stable cells [4], 200 to 1000 nM; on Ba/F3 stable cells [5] it was over 1000 nM; on Ba/F3 stable cells [6] it was over 1000 nM.
Regarding `C=CC(=O)N1CCC(Oc2cc3c(Nc4ccc5ncsc5c4)ncnc3cc2OC)CC1` [Compound 145, 1-(4-((4-(benzo[d]thiazol-6-ylamino)-7-methoxyquinazolin-6-yl)oxy)piperidin-1-yl)prop-2-en-1-one], the concentration for a half-maximal effect (EC50) at Ba/F3 stable cells [1] is over 1000 nM; on Ba/F3 stable cells [2], 200 to 1000 nM; on Ba/F3 stable cells [3] it was 200 to 1000 nM; on Ba/F3 stable cells [4], at most 200 nM; on Ba/F3 stable cells [5] it was over 1000 nM; on Ba/F3 stable cells [6], 200 to 1000 nM.
For `C=CC(=O)N1CCC(Oc2cc3c(Nc4cccc5cccnc45)ncnc3cc2OC)CC1` [Compound 146, 1-(4-((7-methoxy-4-(quinolin-8-ylamino)quinazolin-6-yl)oxy)piperidin-1-yl)prop-2-en-1-one], the EC50 on Ba/F3 stable cells [1] is 200 to 1000 nM; on Ba/F3 stable cells [2] it was 200 to 1000 nM; at Ba/F3 stable cells [3], 200 to 1000 nM; at Ba/F3 stable cells [4] it was at most 200 nM; at Ba/F3 stable cells [5], 200 to 1000 nM; on Ba/F3 stable cells [6] it was at most 200 nM.
